Data published in PubChem BioAssay AID2060904 (Molecular Pharmacology Branch, DTP, NCI, 2025).

Tested on: 349418-098-R-PDC complex spheroid viability
Experiment: Anticancer human tumor 349418-098-R-PDC patient-derived lung adenocarcinoma cell line growth inhibition [RAS]
Details: for IC50: curve of first compound; for viability, T/C: stronger effect = lower value
Outline: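 Tumour cells grown as complex spheroids with HUVEC endothelial cells and mesenchymal stem cells, treated with RAS pathway inhibitor combinations. Each agent spans half-log steps from near clinical Cmax, or 10 microM where Cmax is unknown.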
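Further: spheroids exposed to compound for seven days before viability readout.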

With CCN1CCN(Cc2ccc(Nc3ncc(F)c(-c4cc(F)c5nc(C)n(C(C)C)c5c4)n3)nc2)CC1 + CCn1c(-c2cc(N3CCN(C)CC3)cnc2C(C)OC)c2c3cc(ccc31)-c1csc(n1)CC(NC(=O)C1CC1C)C(=O)N1CCCC(N1)C(=O)OCC(C)(C)C2 the IC50 (second compound 0.000949 µM) was 19.3 nM, the IC50 (second compound 0.003 µM) was 16.4 nM and the IC50 (second compound 0.00949 µM) was 17.1 nM. It also gave an IC50 (second compound 0.03 µM) of 21.8 nM, an IC50 (second compound 0.0949 µM) of 28.7 nM and an IC50 (second compound 0.3 µM) of 20.6 nM. For the same molecule, the viability, T/C (second compound 0.000949 µM, first compound 0.00316 µM) was 96.6%, the viability, T/C (second compound 0.000949 µM, first compound 0.01 µM) was 68.5% and the viability, T/C (second compound 0.000949 µM, first compound 0.0316 µM) was 33.4%. It also gave a viability, T/C (second compound 0.000949 µM, first compound 0.1 µM) of 28.7%, a viability, T/C (second compound 0.000949 µM, first compound 0.316 µM) of 20.4% and a viability, T/C (second compound 0.000949 µM, first compound 1 µM) of 15.3%. For the same molecule, the viability, T/C (second compound 0.003 µM, first compound 0.00316 µM) was 93.4%, the viability, T/C (second compound 0.003 µM, first compound 0.01 µM) was 59.7% and the viability, T/C (second compound 0.003 µM, first compound 0.0316 µM) was 38.5%. It also gave a viability, T/C (second compound 0.003 µM, first compound 0.1 µM) of 19.3%, a viability, T/C (second compound 0.003 µM, first compound 0.316 µM) of 20.3% and a viability, T/C (second compound 0.003 µM, first compound 1 µM) of 14%. It also gave a viability, T/C (second compound 0.00949 µM, first compound 0.00316 µM) of 103%, a viability, T/C (second compound 0.00949 µM, first compound 0.01 µM) of 63.4% and a viability, T/C (second compound 0.00949 µM, first compound 0.0316 µM) of 35.3%. It also gave a viability, T/C (second compound 0.00949 µM, first compound 0.1 µM) of 18.5%, a viability, T/C (second compound 0.00949 µM, first compound 0.316 µM) of 20% and a viability, T/C (second compound 0.00949 µM, first compound 1 µM) of 12.7%. It also gave a viability, T/C (second compound 0.03 µM, first compound 0.00316 µM) of 104%, a viability, T/C (second compound 0.03 µM, first compound 0.01 µM) of 85.5% and a viability, T/C (second compound 0.03 µM, first compound 0.0316 µM) of 33%. The viability, T/C (second compound 0.03 µM, first compound 0.1 µM) was 19.5%, the viability, T/C (second compound 0.03 µM, first compound 0.316 µM) was 23.5% and the viability, T/C (second compound 0.03 µM, first compound 1 µM) was 15%. It also gave a viability, T/C (second compound 0.0949 µM, first compound 0.00316 µM) of 92.7%, a viability, T/C (second compound 0.0949 µM, first compound 0.01 µM) of 54.4% and a viability, T/C (second compound 0.0949 µM, first compound 0.0316 µM) of 58.4%. The viability, T/C (second compound 0.0949 µM, first compound 0.1 µM) was 33.1%, the viability, T/C (second compound 0.0949 µM, first compound 0.316 µM) was 23.1% and the viability, T/C (second compound 0.0949 µM, first compound 1 µM) was 12.8%. For the same molecule, the viability, T/C (second compound 0.3 µM, first compound 0.00316 µM) was 88.1%, the viability, T/C (second compound 0.3 µM, first compound 0.01 µM) was 60.1% and the viability, T/C (second compound 0.3 µM, first compound 0.0316 µM) was 42.8%. For the same molecule, the viability, T/C (second compound 0.3 µM, first compound 0.1 µM) was 32.3%, the viability, T/C (second compound 0.3 µM, first compound 0.316 µM) was 22% and the viability, T/C (second compound 0.3 µM, first compound 1 µM) was 14.6%.
For C=CC(=O)Nc1cc(Nc2nccc(-c3cn(C)c4ccccc34)n2)c(OC)cc1N(C)CCN(C)C + C#Cc1c(F)ccc2cc(O)cc(-c3ncc4c(N5CC6CCC(C5)N6)nc(OCC56CCCN5CC(F)C6)nc4c3F)c12, the IC50 (second compound 0.0316 µM) was > 1000 nM, the IC50 (second compound 0.1 µM) was > 1000 nM and the IC50 (second compound 0.316 µM) was > 1000 nM. The IC50 (second compound 1 µM) was > 1000 nM, the IC50 (second compound 3.16 µM) was > 1000 nM and the IC50 (second compound 10 µM) was 465 nM. It also gave a viability, T/C (second compound 0.0316 µM, first compound 0.00316 µM) of 97.1%, a viability, T/C (second compound 0.0316 µM, first compound 0.01 µM) of 130% and a viability, T/C (second compound 0.0316 µM, first compound 0.0316 µM) of 95.5%. The viability, T/C (second compound 0.0316 µM, first compound 0.1 µM) was 86.1%, the viability, T/C (second compound 0.0316 µM, first compound 0.316 µM) was 84.3% and the viability, T/C (second compound 0.0316 µM, first compound 1 µM) was 92.3%. The viability, T/C (second compound 0.1 µM, first compound 0.00316 µM) was 93.5%, the viability, T/C (second compound 0.1 µM, first compound 0.01 µM) was 125% and the viability, T/C (second compound 0.1 µM, first compound 0.0316 µM) was 82.3%. The viability, T/C (second compound 0.1 µM, first compound 0.1 µM) was 68.3%, the viability, T/C (second compound 0.1 µM, first compound 0.316 µM) was 80.2% and the viability, T/C (second compound 0.1 µM, first compound 1 µM) was 66.5%. The viability, T/C (second compound 0.316 µM, first compound 0.00316 µM) was 86.7%, the viability, T/C (second compound 0.316 µM, first compound 0.01 µM) was 119% and the viability, T/C (second compound 0.316 µM, first compound 0.0316 µM) was 85.8%. The viability, T/C (second compound 0.316 µM, first compound 0.1 µM) was 86.2%, the viability, T/C (second compound 0.316 µM, first compound 0.316 µM) was 89.5% and the viability, T/C (second compound 0.316 µM, first compound 1 µM) was 95.7%. The viability, T/C (second compound 1 µM, first compound 0.00316 µM) was 80.2%, the viability, T/C (second compound 1 µM, first compound 0.01 µM) was 121% and the viability, T/C (second compound 1 µM, first compound 0.0316 µM) was 85.3%. The viability, T/C (second compound 1 µM, first compound 0.1 µM) was 73.1%, the viability, T/C (second compound 1 µM, first compound 0.316 µM) was 89.2% and the viability, T/C (second compound 1 µM, first compound 1 µM) was 82.5%. It also gave a viability, T/C (second compound 3.16 µM, first compound 0.00316 µM) of 73.6%, a viability, T/C (second compound 3.16 µM, first compound 0.01 µM) of 91.2% and a viability, T/C (second compound 3.16 µM, first compound 0.0316 µM) of 84.9%. The viability, T/C (second compound 3.16 µM, first compound 0.1 µM) was 82.8%, the viability, T/C (second compound 3.16 µM, first compound 0.316 µM) was 67.6% and the viability, T/C (second compound 3.16 µM, first compound 1 µM) was 86.4%. The viability, T/C (second compound 10 µM, first compound 0.00316 µM) was 55.6%, the viability, T/C (second compound 10 µM, first compound 0.01 µM) was 62% and the viability, T/C (second compound 10 µM, first compound 0.0316 µM) was 88.9%. The viability, T/C (second compound 10 µM, first compound 0.1 µM) was 65.2%, the viability, T/C (second compound 10 µM, first compound 0.316 µM) was 72.9% and the viability, T/C (second compound 10 µM, first compound 1 µM) was 12.4%.
